Data as given in patent EP0120270A2, “Furyloxazolylacetic acid derivative, processes for preparing same and pharmaceutical composition” (Tanabe Seiyaku Co., Ltd., priority 1983, dated 1984).

What was measured:
[1] = tested on: male SD rats; assay: Hypolipidemic activity (serum cholesterol and serum triglyceride in rats fed diet containing test compound); format: in vivo; details: test compound 50 mg % in diet, ad libitum for one week, group of 5
Protocol: A test compound (50 mg %) was added to a commercial diet, and male SD rats (body weight: 120 - 140 g, a group of 5 rats) were fed with the diet ad libitum for one week. After the experimental period, blood was collected from the tail vein of the rats under ether anesthesia. Then, serum cholesterol and serum triglyceride were measured according to the methods of Zak (Amr. J. Clin, Pathol., Vol. 24, page 1307 (1954)) and Van Handel-Silversmit (J. Lab. & Clin. Med., Vol. 50, page 152 (1957)), respectively. Based on the results obtained above, the decrease (%) in serum cholesterol or triglyceride were calculated by the following formula: [formula]

[2] = tested on: platelet aggregation; assay: Platelet aggregation-inhibiting activity (collagen-induced aggregation in platelet-rich plasma); format: cell-based, rats; details: final concentration: 100 µg/ml, rat PRP, 37°C
Protocol: Blood was collected from the abdominal aorta of male SD rats (body weight: 250 - 300 g) which were anesthetized with ether. Nine volumes of said blood were mixed with one volume of an aqueous 3.8 % (w/v) trisodium citrate solution, and the mixture was centrifuged at 500 x g for 5 minutes to give platelet-rich plasma (hereinafter referred to as "PRP") as the supernatant solution. The bottom layer was further centrifuged at 1000 x g for 10 minutes to give platelet-poor plasma (hereinafter referred to as "PPP") as the supernatant solution. PRP was diluted with PPP so that the blood platelet count was 8 - 10 x 10 /mm . Then, a mixture of 200 µl of said diluted PRP and 25 µl of a test compound solution (final concentration: 100 µg/ml) was introduced into a glass cell of SIENCO aggregometer (Sienco Inc., Morrison, Colo. Model DP-247-D). After the mixture was stirred at 1100 rpm at 37°C for 2 minutes, 25 µl of a collagen solution (prepared by Holmsen's method described in Biochim. Biophys. Acta, Vol. 186, page 254(1969)) was added thereto, and the percentage inhibition of platelet aggregation was calculated in accordance with the following formula from the degree of the platelet aggregation which was estimated by Born's method (Nature, 194, page 927[…]). [formula]

Structure (SMILES): CC(C)(C(=O)O)c1nc(-c2ccc(Cl)cc2)oc1-c1ccco1 [2-[2-(4-chlorophenyl)-5-(2-furyl)-4-oxazolyl]-2-methylpropionic acid]
- Decrease (%) in serum choles-terol [1]: 16%
- Decrease (%) in serum trigly-ceride [1]: 54%

Structure (SMILES): CC(C(=O)O)c1nc(-c2ccc(Cl)cc2)oc1-c1ccco1 (stereo not shown) [2-[2-(4-chlorophenyl)-5-(2-furyl)-4-oxazolyl]-propionic acid]
- Decrease (%) in serum choles-terol [1]: 14%
- Decrease (%) in serum trigly-ceride [1]: 34%

Structure (SMILES): CCOC(=O)C(C)c1nc(-c2ccc(Cl)cc2)oc1-c1ccco1 (stereo not shown) [Ethyl 2-[2-(4-chlorophenyl)-5-(2-furyl)-4-oxazolyl]-propionate]
- inhibition at 100 µg/mL [2]: ≥ 10%
- Decrease (%) in serum choles-terol [1]: 15%
- Decrease (%) in serum trigly-ceride [1]: 22%

Structure (SMILES): CCOC(=O)C(C)(C)Oc1ccc(Cl)cc1 [Clofibrate, 2-(4-chlorophenoxy)-2-methylpropanoic acid ethyl ester, reference compound]
- inhibition at 100 µg/mL [2]: < 10%
- Decrease (%) in serum choles-terol [1]: 15%
- Decrease (%) in serum trigly-ceride [1]: 16%

Structure (SMILES): CCOC(=O)C(C)c1nc(-c2ccc(Cl)cc2)oc1-c1ccoc1 (stereo not shown) [Ethyl 2-[2-(4-chlorophenyl)-5-(3-furyl)-4-oxazolyl]-propionate]
- inhibition at 100 µg/mL [2]: ≥ 10%
- Decrease (%) in serum choles-terol [1]: 22%
- Decrease (%) in serum trigly-ceride [1]: 45%
